What was measured:
adult worker honey bees = test: Survival of bee cohorts on diets containing ergosterol; type: in vivo, Apis mellifera; settings: bees fed diets containing ergosterol, FIG. 2
Text: Example 2: Survival: Bees are Less Likely to Survive on Diets Containing Ergosterol Method: Newly emerged adult worker honey bees fed with a diet treatment and ad libitum access to water. The treatment diet contained the ergosterol. Newly-emerged bees were removed from the brood frame and cohorts of 30 bees per replicate were housed in plastic rearing cages. In all experiments, 10 cohorts of ˜30 bees each were used for each treatment group. In all diets carbohydrate was maintained at 60% using powdered sugar and fat was maintained at 8% using an emulsion. Consumption of each diet was measured every day over the course of the experiment. The number of bees alive in the box was counted each day for 14 days.

Nosema ceranae = test: Nosema infection of bees fed ergosterol-containing diet; type: in vivo; settings: diet supplemented with ergosterol, FIG. 5
Text: Method: Newly emerged adult worker honey bees (Apis mellifera) or adult worker bumble bees (Bombus terrestris) were reared in an assay to test whether diet induced an increase in Nosema ceranae infection. Bees had access to a diet composed of 15% protein, 6% fat, 78% carbohydrates and 1% vitamins and minerals and adlibitum access to water and sucrose solution. One treatment diet contained the ergosterol and the other contained no sterol. Newly emerged bees were removed from the brood frame and cohorts of 30 bees per replicate were housed in plastic rearing cages. In all experiments, 10 cohorts of ˜30 bees each were used for each treatment group. Consumption of each diet was measured every 24 h for 14 days.
Nosema ceranae infection of each cohort was produced as in Tischler et al. (2017). Briefly, Nosema spores were collected in 10 bees, concentrated and cultured. Cultures were added to 30% sucrose solutions and fed to the bees.

honey bees = test: Brood production of honey bee colonies on diets with ergosterol; type: in vivo, Apis mellifera; settings: bee food with ergosterol vs without, FIGS. 3 and 4
Method: Example 3 and 4. Brood Production: Honey Bees Cannot Produce Brood on Diets with high quantities of ergosterol Method: Fully functional insulated styrofoam […] nucs comprised 5 mini frames populated with adult workers and 1 mated laying queen bee were populated with 300-400 ml of young adult workers ( N<1,000 bees of mixed ages). […] Each treatment was tested with 3-6 colonies; each colony was fed with a 60-100 g patty (solid diet) on the top feeder fitted with a mesh floor. Diet was fed on the first day and again on day 6; the quantity consumed was measured on day 6 and day 15. If no larvae or eggs/queen are observed by day 6 then the experiment is terminated. The number of capped brood cells was counted every 15 days. The number of bee seams was estimated during each inspection. Sugar syrup (34%) and water was provided in feeders inside the tent to prevent carbohydrate starvation and to stimulate foraging activity.

bee gut = test: Passage of dietary ergosterol across the bee gut; type: in vivo; settings: ergosterol in bee diet
[1] = system: adult worker honey bees (Apis mellifera) or adult worker bumble bees (Bombus terrestris); test: Two-choice preference assay: diet with ergosterol vs diet with no sterol; type: in vivo; settings: feed containing ergosterol vs food without it, FIG. 1
Method: Example 1. Preference Assay: Bees Avoid Ergosterol in Foods Method: Newly emerged adult worker honey bees (Apis mellifera) or adult worker bumble bees (Bombus terrestris) were tested in a two-choice preference assay in which bees had access to two diets and adlibitum access to water. One treatment diet contained the ergosterol and the other contained no sterol. Newly emerged bees were removed from the brood frame and cohorts of 30 bees per replicate were housed in plastic rearing cages. In all experiments, 10 cohorts of ˜30 bees each were used for each treatment group. In all diets carbohydrate was maintained at 60% using powdered sugar and fat was maintained at 8% using an emulsion. Consumption of each diet was measured every 24 h for 5 days. Preference index was calculated as (amount of treatment consumed-amount of control consumed)/(total amount of food consumed).

**Q.** With `CC(C)[C@@H](C)/C=C/[C@@H](C)[C@H]1CC[C@H]2C3=CC=C4C[C@@H](O)CC[C@]4(C)[C@H]3CC[C@]12C` [ergosterol] as the compound, how does the Lifespan (adult worker honey bees) read?
**A.** Its Lifespan is “shorter lifespans”.

**Q.** And the “Nosema population in the gut” value (Nosema ceranae)?
**A.** The value was “increases the Nosema population in the gut”.

**Q.** What about the Mortality (Nosema ceranae; bees inoculated with Nosema ceranae) of the same compound?
**A.** The Mortality was “higher mortality”.

**Q.** And the Brood production (honey bees)?
**A.** The Brood production was “less brood”.

**Q.** What about the “Crossing of the bee gut” value (bee gut) of the same compound?
**A.** Its value is “does not cross the bee gut”.

**Q.** What about the Diet preference [1] of the same compound?
**A.** Its Diet preference is “bees actively avoid feed containing ergosterol”.

From patent US20240397979A1, “METHODS FOR DELIVERING BENEFICIAL NUTRIENTS TO INVERTEBRATES THROUGH A MICROORGANISM DEFICIENT IN ANTINUTRIENTS” (APIX BIOSCIENCES, priority 2021, published 2024)
